In patent publication US8883798B2, “Pyrimidine compounds inhibiting the formation of nitric oxide and prostaglandin E2, method of production thereof and use thereof” (Ustav Organicke Chemie a Biochemie Akademie Ved CR, V.V.I., priority 2011, dated 2014):
Values belong to the compound of their own block, whether it stands above or below them.

What was measured:
[1] = system: Salmonella typhimurium TA 98 and TA 100, Escherichia coli WP2 uvrA
Description: With compound 28, its possible mutagenicity (genotoxicity) was assessed using the standard bacterial reverse mutation test. According to Council Regulation (ES) No. 440/2008, stipulating the test methods according to the European Parliament and Council regulation (ES), the method used was B.13/14, Mutagenicity—Reverse Mutation Test Using Bacteria, which is described in the same way also in the OECD Test Guideline No. 471.
[…] The experiments were conducted without using metabolic activation and after activation with supernatant S9 from […] livers and with mixtures of cofactors (NADP and glucoso-6-phosphate) to determine the mutagenicity of the metabolic products of the compound tested. Supernatant S9 was prepared according to the literature [Mutat. Res. 113, 173-215, 1983].
The principle of the test is to detect possible revertants created by reverse mutation, which would be induced in the bacterial culture by the tested compound. Specially constructed bacterial strains are used, carrying mutations in the place for his (trp), which are not capable of forming colonies on the minimum plates without histidine or tryptophan. […] Mutagenic potential is given by the growing number of revertants in the influenced groups in comparison with a negative control, and/or in dependence on the growing number of revertants on the dose of the tested compound.
Bacterial testers, types Salmonella typhimurium TA 98 (CCM 3811) and Escherichia coli WP2 uvrA (CCM 4751), were acquired from the Czech Collection of Microorganisms of Masaryk University, Brno and the strain Salmonella typhimurium TA100 (CIP 103796, lot No. 1008) from the Biological Resource Center, Institut Pasteur in Paris (CRBIP).

[2] = system: production of nitric oxide (NO); assay: Production of nitric oxide (NO) in cultures of mouse peritoneal cells stimulated with IFN-γ plus LPS (Griess reagent); type: cell-based, mice; conditions: Table 3A; substance 50 μmol·l^−1; IFN-g plus LPS; 24 h
Procedure, shortened: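 C57BL/6 mouse peritoneal cells (2×10^6/mL) stimulated with IFN-γ (5000 pg/mL) plus LPS (100 pg/mL), compounds at 50 μmol·l^−1. Nitrite measured by Griess reagent after 24 h, expressed as % of stimulated control (set 100%); IC50 is concentration reducing NO by 50%.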

[3] = system: production of prostaglandin E2 (PGE2); assay: Production of prostaglandin E2 (PGE2) in cultures of mouse peritoneal cells stimulated with LPS (ELISA kit); type: cell-based, mice; conditions: Table 3A, substance 50 μmol·l^−1, 6 h
Procedure, shortened: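 C57BL/6 mouse peritoneal cells (3×10^6/mL) stimulated with LPS (10 ng/mL). PGE2 measured by ELISA.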

[4] = system: peritoneal cells of mice; assay: Cell viability of mouse peritoneal cells (WST-1 kit); type: cell-based; conditions: Table 3A, substance 50 μmol·l^−1, 24 h
Procedure, shortened: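 C57BL/6 mouse peritoneal cells (1×10^6/mL) cultured 24 h with compounds at 50 μmol·l^−1. Viability read with WST-1 tetrazolium salt and expressed as percent of untreated control cells (100%).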

[5] = system: human umbilical vein endothelial cells (HUVEC); assay: Tube formation assay of HUVEC on Matrigel (in vitro angiogenesis); type: cell-based; conditions: 8 h
Description: This so called “Tube Formation Assay” is a method based on the ability of endothelial cells to form capillary-like tubular structures when cultured on Matrigel™ (a gel of basement membrane extract—their natural substrate). The process of capillary-like tube formation includes endothelial cell attachment, migration, and differentiation into tubules. In this experiment, treatment with tested compounds started at the time of seeding HUVEC onto Matrigel and the extent of tubule development was observed after an 8 h time period. Disruption of tube formation was then assessed through observation of the tubular network and direct comparison to solvent-only controls. The quantitative and qualitative measurement of tubular network complexity was performed using web-based S.CORE imaging software and expressed by means of number of tubes, their total length, quality, number of branching points, etc. All these parameters were integrated into “tube formation index” which corresponds to the degree of complexity of tubular network. […] At a 10 μmol/L concentration, compound 23 reduced tube formation by >90%. […] Apoptosis in HUVECs (at ˜70% confluency) treated with or without varying concentrations (relevant for the tube formation assay) of tested substances was assessed by a combination of Annexin V and JC-1 staining. After 8 h of these treatments, cells were collected, and the cell population undergoing apoptosis was identified by double-parameter flow cytometry using annexin V and the vital dye propidium iodide (PI). Mitochondrial membrane potential in treated endothelial cells was measured using the lypophilic probe JC-1, which aggregates in healthy mitochondria and fluoresces red, but diffuses in the cytoplasm and fluoresces green upon mitochondrial damage. In both cases, quantification of apoptotic cells were conducted in BD FACSDiva software.

[6] = system: HUVEC; assay: HUVEC cell proliferation (XTT assay); type: cell-based, human; conditions: 10 to 50 μmol/L, 8 hours

melting point: 95 to 96 °C
SMILES: CC(C)c1c(Cl)nc(NC=O)nc1Cl [Substance 53, 4,6-dichloro-2-formamido-5-isopropylpyrimidine]

melting point: 159 to 161 °C
SMILES: C#CCc1c(Cl)nc(N)nc1Cl [Substance 33, 2-amino-4,6-dichloro-5-(prop-2-yn-1-yl)pyrimidine]

melting point: 189 to 190 °C
SMILES: CCCCc1c(Cl)nc(N)nc1-c1cccnc1 [Substance 43, 2-amino-5-butyl-4-chloro-6-(pyridin-3-yl)pyrimidine]

melting point: 93 to 95 °C
SMILES: O=CNc1nc(Cl)c(Cc2ccccc2)c(Cl)n1 [Substance 59, 5-benzyl-4,6-dichloro-2-formamidopyrimidine]

melting point: 62 to 63 °C
SMILES: CCCCc1c(Cl)ncnc1Cl [Substance 61, 5-butyl-4,6-dichloropyrimidine]

melting point: 116 to 118 °C
SMILES: CCc1c(Cl)nc(NC=O)nc1Cl [Substance 49, 4,6-dichloro-5-ethyl-2-formamidopyrimidine]

melting point: 154 to 155 °C
SMILES: Nc1nc(Br)c(Cc2ccccc2)c(Br)n1 [Substance 40, 2-amino-5-benzyl-4,6-dibromopyrimidine]

Continued, compound first:

SMILES: [N-]=[N+]=[N-] [sodium azide, reference compound]
Number of revertants, positive control for −MA I ([1]; arrangement of FIG. 5 (TA 100), without metabolic activation, 1.5 μg): > 500

SMILES: CCCCc1c(Cl)nc(N=CN(C)C)nc1Cl [Substance 19]
Production of nitric oxide in % of the controls [2]: 2.99 ± 0.53 % of the controls
Production of prostaglandins in % of the controls [3]: 14.93 ± 3.11 % of the controls
Cell viability in % of the controls [4]: 123.21 ± 21.43 % of the controls
Effect on tube formation ([5]; 10 μmol/L): no inhibitory activity was detectable
Effect on tube formation ([5]; 25 μmol/L): Partial differentiation
Capillary tube formation [5]: inhibited capillary tube formation in a dose dependent manner
HUVEC cell proliferation [6]: did not influence HUVEC cell proliferation

SMILES: CC(C)c1c(Cl)nc(NC=O)nc1Cl [Substance 53]
Production of nitric oxide in % of the controls [2]: 0.70 ± 0.22 % of the controls
Production of prostaglandins in % of the controls [3]: 8.57 ± 0.99 % of the controls
Cell viability in % of the controls [4]: 60.02 ± 0.29 % of the controls
Effect on tube formation ([5]; 10 μmol/L): only limited effect
Incomplete tube formation ([5]; 25 μmol/L): ~46%
Capillary tube formation [5]: inhibited capillary tube formation in a dose dependent manner
HUVEC cell proliferation [6]: did not influence HUVEC cell proliferation

SMILES: Nc1nc(Cl)c(Cc2ccccc2)c(Cl)n1 [Substance 34]
Production of nitric oxide in % of the controls [2]: 50.57 ± 9.31 % of the controls
Production of prostaglandins in % of the controls [3]: 3.71 ± 2.00 % of the controls
Cell viability in % of the controls [4]: 105.92 ± 20.65 % of the controls
Mutagenicity (reverse mutation) ([1]; all strains, all tested concentrations, with and without metabolic activation): non-mutagenous

SMILES: Cc1c(Cl)nc(N)nc1Cl [Substance 25, 2-amino-4,6-dichloro-5-methylpyrimidine]
melting point: 189 to 190 °C

SMILES: CCC(C)c1c(Cl)nc(NC=O)nc1Cl (stereo not shown) [Substance 54, 5-(sec-butyl)-4,6-dichloro-2-formamidopyrimidine]
melting point: 92 to 93 °C

SMILES: CN(C)C=Nc1nc(Cl)c(Cc2ccccc2)c(Cl)n1 [Substance 23]
Production of nitric oxide in % of the controls [2]: 4.41 ± 0.59 % of the controls
Production of prostaglandins in % of the controls [3]: 3.05 ± 1.26 % of the controls
Cell viability in % of the controls [4]: 96.24 ± 11.9 % of the controls
Effect on tube formation ([5]; 10 μmol/L): tube disruption
Reduction of tube formation ([5]; 10 μmol/L): > 90%
Capillary tube formation [5]: inhibited capillary tube formation in a dose dependent manner
Concentration from which antiangiogenic activity was apparent [5]: ≥ 5 µmol/L
HUVEC cell proliferation [6]: did not influence HUVEC cell proliferation

SMILES: Nc1nc(Cl)c(Cc2ccccc2)c(Cl)n1 [Substance 34, 2-amino-5-benzyl-4,6-dichloropyrimidine]
melting point: 196 to 197 °C

SMILES: CCCCc1c(Cl)nc(N)nc1Cl [Substance 28, 2-amino-5-butyl-4,6-dichloropyrimidine]
melting point: 169 to 170 °C

SMILES: CCCc1c(Cl)nc(/N=C/N(C)C)nc1Cl [Substance 15, 4,6-dichloro-2-{[(dimethylamino)methylene]amino}-5-propylpyrimidine]
melting point: 76 to 78 °C

SMILES: Cc1c(Cl)nc(/N=C/N(C)C)nc1Cl [Substance 13, 4,6-dichloro-5-methyl-2-{[(dimethylamino)methylene]amino}pyrimidine]
melting point: 84 to 86 °C
